Several values for one entry are separate records, joined by “and”; a condition that tells them apart may be missing. Equal entries are not always repeated. Toxic doses and inconclusive results are not listed.

This test relates to P388 leukemia ip, CD2F1 mice, survival T/C. In words: NCI In Vivo Anticancer Drug Screen. Data for tumor model P388 Leukemia (intraperitoneal) in CD2F1 (CDF1) mice. Conditions: endpoint: median survival time, higher = longer survival. A digest of the protocol: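 Mice carrying the transplanted tumor received test compound or vehicle. Survival was recorded in each group, and the value is the treated-group measurement divided by that of the vehicle-treated control group.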

Where [1] appears, read: dose: 50.0 mg/kg/injection, schedule: Q01DX005 (ip), vehicle: saline with Tween-80.
Setting [2] is: dose: 100.0 mg/kg/injection, schedule: Q01DX005 (ip), vehicle: saline with Tween-80.
Where [3] appears, read: dose: 200.0 mg/kg/injection, schedule: Q01DX005 (ip), vehicle: saline with Tween-80.
The mark [4] stands for this setting: dose: 100.0 mg/kg/injection, schedule: Q04DX003 (ip), vehicle: saline with Tween-80.
Setting [5] is: dose: 200.0 mg/kg/injection, schedule: Q04DX003 (ip), vehicle: saline with Tween-80.
The mark [6] stands for this setting: dose: 400.0 mg/kg/injection, schedule: Q04DX003 (ip), vehicle: saline with Tween-80.
Where [7] appears, read: dose: 50.0 mg/kg/injection, schedule: Q01DX009 (ip), vehicle: saline with Tween-80.
[8] abbreviates: dose: 200.0 mg/kg/injection, schedule: Q01DX009 (ip), vehicle: saline with Tween-80.
Setting [9] is: dose: 100.0 mg/kg/injection, schedule: Q01DX001 (ip), vehicle: saline with Tween-80.
The mark [10] stands for this setting: dose: 100.0 mg/kg/injection, schedule: Q01DX009 (ip), vehicle: saline with Tween-80.

In the case of `CC1OC(O[C@H]2C[C@](O)(C(=O)CO)Cc3c(O)c4c(c(O)c32)C(=O)c2c(OCc3ccccc3)cccc2C4=O)CC(N)C1O` (stereo partly specified), the T/C (dose: 3.13 mg/kg/injection, schedule: Q04DX003 (ip), vehicle: water) was 118 % of control; the T/C (dose: 6.25 mg/kg/injection, schedule: Q04DX003 (ip), vehicle: distilled water + Tween-80) was 110 % of control; the T/C (dose: 6.25 mg/kg/injection, schedule: Q04DX003 (ip), vehicle: water) was 118 % of control; the T/C (dose: 12.5 mg/kg/injection, schedule: Q04DX003 (ip), vehicle: water) is 123 % of control; the T/C (dose: 25.0 mg/kg/injection, schedule: Q04DX003 (ip), vehicle: water) is 123 % of control.
On to `C=C(C(=O)O)S(=O)(=O)O`, for which the T/C by setting is: (dose: 7.5 mg/kg/injection, schedule: Q01DX009 (ip), vehicle: saline with Tween-80) 102 % of control; (dose: 15.0 mg/kg/injection, schedule: Q01DX009 (ip), vehicle: saline with Tween-80) 110 % of control; (dose: 30.0 mg/kg/injection, schedule: Q01DX009 (ip), vehicle: saline with Tween-80) 114 % of control.
As to `CCCCS(=O)(=O)N/N=C/C(=O)O`, the T/C runs as follows: (dose: 6.25 mg/kg/injection, schedule: Q01DX009 (ip), vehicle: water) 119 % of control; (dose: 12.5 mg/kg/injection, schedule: Q01DX009 (ip), vehicle: water) 124 % of control; (dose: 50.0 mg/kg/injection, schedule: Q01DX009 (ip), vehicle: water) 162 % of control; (dose: 100.0 mg/kg/injection, schedule: Q01DX009 (ip), vehicle: water) 173 % of control.
With `O=C1c2ccccc2C(=O)c2c1c(Cl)cc1c(=O)c3cc(Cl)cc(Cl)c3[nH]c21`, the T/C runs as follows: under setting [1], 99 % of control; under setting [2], 95 % of control; under setting [3], 92 % of control.
Regarding `COC1/C=C/OC2(C)Oc3c(C)c(O)c4c(O)c(c5c(nc(-c6ccco6)n5-c5ccccc5)c4c3C2=O)NC(=O)/C(C)=C\C=C\C(C)C(O)C(C)C(O)C(C)C(OC(C)=O)C1C` (stereo unspecified), the T/C (dose: 25.0 mg/kg/injection, schedule: Q01DX009 (ip), vehicle: Klucel (hydroxypropylcellulose) (HPC)) was 89 % of control; the T/C (dose: 50.0 mg/kg/injection, schedule: Q01DX009 (ip), vehicle: Klucel (hydroxypropylcellulose) (HPC)) is 95 % of control; the T/C (dose: 100.0 mg/kg/injection, schedule: Q01DX009 (ip), vehicle: Klucel (hydroxypropylcellulose) (HPC)) was 95 % of control; the T/C (dose: 200.0 mg/kg/injection, schedule: Q01DX009 (ip), vehicle: Klucel (hydroxypropylcellulose) (HPC)) is 93 % of control.
For the compound `NC(Cc1cccs1)C(=O)Nc1nncs1` (stereo unspecified), the T/C was 95 % of control (dose: 100.0 mg/kg/injection, schedule: Q04DX002 (ip), vehicle: suspension in saline); 119 % of control (dose: 200.0 mg/kg/injection, schedule: Q04DX002 (ip), vehicle: suspension in saline); 160 % of control (dose: 400.0 mg/kg/injection, schedule: Q04DX002 (ip), vehicle: saline); 121 % of control (dose: 400.0 mg/kg/injection, schedule: Q04DX002 (ip), vehicle: suspension in saline); 160 % of control (dose: 600.0 mg/kg/injection, schedule: Q04DX002 (ip), vehicle: saline).
For `C=CCCCCCCCCC(=O)NCC(C)C`, the T/C reads like this: under setting [4], 86 % of control; under setting [5], 95 % of control; under setting [6], 100 % of control.
As to `Cc1ccc(NC(=O)N(CCCCl)N=O)cc1`, the T/C by setting is: under setting [7], 86 % of control; under setting [4], 95 % of control; under setting [8], 100 % of control; under setting [5], 90 % of control.
For `C1CC[N-]CC1.C1CC[N-]CC1.[Co].[N-]=C=S.[N-]=C=S`, under setting [9], the T/C is 100 % of control.
On to `CCOC12NC(=O)N(C)C1(OCC)C(=O)N(C)C(=O)N2C` (stereo unspecified), for which the T/C is 91 % of control under setting [7], 92 % of control under setting [10] and 88 % of control under setting [8].
Regarding `CC(C)Nc1ncnc2[nH]ncc12`, the T/C runs as follows: (dose: 16.0 mg/kg/injection, schedule: Q01DX009 (ip), vehicle: Klucel (hydroxypropylcellulose) (HPC)) 101 % of control; (dose: 32.0 mg/kg/injection, schedule: Q01DX009 (ip), vehicle: Klucel (hydroxypropylcellulose) (HPC)) 97 % of control; (dose: 64.0 mg/kg/injection, schedule: Q01DX009 (ip), vehicle: Klucel (hydroxypropylcellulose) (HPC)) 87 % of control.
Take `O/C(=C\C(=S)S)c1ccccc1`: the T/C by setting is: (dose: 1.56 mg/kg/injection, schedule: Q04DX003 (ip), vehicle: Klucel (hydroxypropylcellulose) (HPC)) 96 % of control; (dose: 3.12 mg/kg/injection, schedule: Q04DX003 (ip), vehicle: Klucel (hydroxypropylcellulose) (HPC)) 96 % of control; (dose: 6.25 mg/kg/injection, schedule: Q04DX003 (ip), vehicle: Klucel (hydroxypropylcellulose) (HPC)) 97 % of control.
Consider `Cn1c(=O)c2c(nc(/N=C/c3ccco3)n2C)n(C)c1=O`, for which the T/C runs as follows: (dose: 100.0 mg/kg/injection, schedule: Q04DX003 (ip), vehicle: saline) 91 % of control; (dose: 200.0 mg/kg/injection, schedule: Q04DX003 (ip), vehicle: saline) 90 % of control; (dose: 400.0 mg/kg/injection, schedule: Q04DX003 (ip), vehicle: saline) 92 % of control.
In the case of `CC(C)(Nc1ccccc1)C(=O)OC(C)(C)C(=O)Nc1ccccc1`, the T/C under setting [1] is 90 % of control, the T/C under setting [2] is 91 % of control and the T/C under setting [3] was 91 % of control.
Take `COC1=CC(=[O+]C)/C(=C/c2c(OC)cc(OC)cc2OC)C(OC)=C1`: the T/C runs as follows: under setting [7], 94 % of control; under setting [10], 86 % of control; under setting [8], 86 % of control.
For `O=C(O)Cn1/c(=N\N=C\c2ccc([N+](=O)[O-])cc2)sc2ccccc21`, the T/C is 91 % of control under setting [9]; 89 % of control (dose: 200.0 mg/kg/injection, schedule: Q01DX001 (ip), vehicle: saline with Tween-80); 99 % of control (dose: 400.0 mg/kg/injection, schedule: Q01DX001 (ip), vehicle: saline with Tween-80).
`COc1ccc(CC2C(=O)OC(=O)C2Cc2ccc(OC)c(OC)c2)cc1OC` (stereo unspecified): the T/C reads like this: under setting [4], 100 % of control; under setting [5], 90 % of control; under setting [6], 100 % of control.
For the compound `O=S(=O)(Nc1ccc(O)cc1)c1ccccc1`, the T/C reads like this: (dose: 25.0 mg/kg/injection, schedule: Q04DX003 (ip), vehicle: saline with Tween-80) 110 % of control; (dose: 50.0 mg/kg/injection, schedule: Q04DX003 (ip), vehicle: saline with Tween-80) 100 % of control; under setting [10], 108 % of control; under setting [4], 107 % of control; under setting [8], 100 % of control; under setting [5], 100 % of control. Also, the T/C (dose: 400.0 mg/kg/injection, schedule: Q01DX009 (ip), vehicle: saline with Tween-80) was 87 % of control and the T/C under setting [6] is 100 % of control.
With `COc1cc2c(c(OC)c1OC)-c1cccc(=O)cc1C(NC(C)=O)CC2` (stereo unspecified), the T/C was 121 % of control (dose: 1.25 mg/kg/injection, schedule: Q01DX009 (ip), vehicle: Klucel (hydroxypropylcellulose) (HPC)); 100 % of control (dose: 2.5 mg/kg/injection, schedule: Q01DX005 (ip), vehicle: saline); 101 % of control (dose: 5.0 mg/kg/injection, schedule: Q01DX005 (ip), vehicle: saline); 150 % of control and 155 % of control (dose: 5.0 mg/kg/injection, schedule: Q01DX009 (ip), vehicle: Klucel (hydroxypropylcellulose) (HPC)); 104 % of control (dose: 10.0 mg/kg/injection, schedule: Q01DX005 (ip), vehicle: saline); 176 % of control and 179 % of control (dose: 10.0 mg/kg/injection, schedule: Q01DX009 (ip), vehicle: Klucel (hydroxypropylcellulose) (HPC)). Further, the T/C was 99 % of control (dose: 20.0 mg/kg/injection, schedule: Q01DX005 (ip), vehicle: saline); 233 % of control and 250 % of control (dose: 20.0 mg/kg/injection, schedule: Q01DX009 (ip), vehicle: Klucel (hydroxypropylcellulose) (HPC)); 104 % of control (dose: 40.0 mg/kg/injection, schedule: Q01DX005 (ip), vehicle: saline).
For the compound `O=C1OCCN1/N=C\c1ccccc1`, the T/C (dose: 50.0 mg/kg/injection, schedule: Q01DX009 (ip), vehicle: saline) was 94 % of control; the T/C (dose: 100.0 mg/kg/injection, schedule: Q01DX009 (ip), vehicle: saline) is 87 % of control; the T/C (dose: 200.0 mg/kg/injection, schedule: Q01DX009 (ip), vehicle: saline) was 90 % of control.

The record behind these values is PubChem BioAssay AID330 (DTP/NCI, 2004).
